Results published in patent US11926645B2, “Compounds and methods for treatment of viral infections” (priority 2020, dated 2024).
Like-named read-outs stand apart in the source and are kept apart here.

How the values were obtained:
[1] = format: in vivo, Sprague-Dawley rats
Protocol: β-d-N^4-hydroxycytidine (NHC) was dosed orally by gavage to male Sprague-Dawley rats (n=3) at 10 mg/kg in 3.9% citric acid and 96.1% water, pH 2.8; Molnupiravir at 12.7 mg/kg in 2.5% kolliphor RH 40, 10% polyethylene glycol 300 and 87.5% water, pH 5.3. […]

[2] = in vitro; format: in vitro ADME, Human; settings: for half-life at 2 μM: human, s9, pH 7.4
Protocol: (§1) Duplicate aliquots of test compound or positive control substrate (GS-7340) were added to S9 stock diluted with 100 mM phosphate buffered saline, pH 7.4, to obtain a protein concentration of 1.0 mg/mL. The S9 metabolic reactions were initiated by the addition of the substrates to the S9 reaction mixture to a final concentration of 2 μM. At 0, 10, 20, 30, 60 and 120 min, 25 μL aliquots of the reaction mixture were transferred to plates containing 225 μl of IS/Q solution. After quenching, the plates were centrifuged at 3000×g for 30 minutes, and 150 μL aliquots of each supernatant were diluted with 150 μL water. Aliquots (10 μL) of the diluted supernatant were analyzed on a Thermo Q-Exactive mass spectrometer as described below.
(§2) Quantification of test compounds and controls was performed by analyte/internal standard peak area ratio (PAR) values measured on a Thermo Q-Exactive mass spectrometer coupled to a Dionex UltiMate 3000 HPLC with a Leap Technologies HTC PAL autosampler. The column used was a Thermo Hypersil GOLD (1.9 μm particle size, 2.1×50 mm). Mobile phase A consisted of 0.1% (v/v) formic acid in water. Mobile phase B consisted of 0.1% (v/v) formic acid in acetonitrile. Elution of analytes was achieved by a series of linear gradients of acetonitrile in water containing 0.1% (v/v) formic acid. The mass spectrometer was calibrated on a weekly basis and mass tolerance of 5 ppm was used.

[3] = in vitro; format: in vitro ADME; settings: s9, pH 7.4
Protocol: as §1, with “mM potassium” for “mM”, “phosphate buffer,” for “phosphate buffered saline,”, “of 2.4” for “of 1.0”, “At 2, 12, 25, 45, 65” for “At 0, 10, 20, 30, 60”, “and 90” for “and 120”, “150 μl,” for “150 μL”
as §2

[4] = tested on: RSV-Fluc (Respiratory Syncytial virus strain A2 containing the firefly luciferase reporter); assay: microbe, parasite or virus in culture; format: cell-based; settings: human respiratory syncytial virus, 72 h, NHBE cells, three days
[5] = tested on: SARS-CoV-2-Nluc viruses; assay: microbe, parasite or virus in culture; format: cell-based
[6] = tested on: RSV strain A2; assay: RSV antiviral assay (Hep2), EC50-Hep2/B1-384; format: cell-based; settings: human respiratory syncytial virus, HEp-2, 96 h; Hep2 cells, 4 days, Cell-Titer Glo
[7] = target: T1, CES1 (Homo sapiens, UniProt P23141); assay: CES1/2 stability, CES1; format: in vitro ADME; settings: CES1 Supersome preparation; Supersome preparations, CES 1.5 mg/ml, 2 μM substrate, pH 7.4, 37° C.; read-out: CES1 T1/2
T1 construct: purchased
T1 sequence (P23141 18-567): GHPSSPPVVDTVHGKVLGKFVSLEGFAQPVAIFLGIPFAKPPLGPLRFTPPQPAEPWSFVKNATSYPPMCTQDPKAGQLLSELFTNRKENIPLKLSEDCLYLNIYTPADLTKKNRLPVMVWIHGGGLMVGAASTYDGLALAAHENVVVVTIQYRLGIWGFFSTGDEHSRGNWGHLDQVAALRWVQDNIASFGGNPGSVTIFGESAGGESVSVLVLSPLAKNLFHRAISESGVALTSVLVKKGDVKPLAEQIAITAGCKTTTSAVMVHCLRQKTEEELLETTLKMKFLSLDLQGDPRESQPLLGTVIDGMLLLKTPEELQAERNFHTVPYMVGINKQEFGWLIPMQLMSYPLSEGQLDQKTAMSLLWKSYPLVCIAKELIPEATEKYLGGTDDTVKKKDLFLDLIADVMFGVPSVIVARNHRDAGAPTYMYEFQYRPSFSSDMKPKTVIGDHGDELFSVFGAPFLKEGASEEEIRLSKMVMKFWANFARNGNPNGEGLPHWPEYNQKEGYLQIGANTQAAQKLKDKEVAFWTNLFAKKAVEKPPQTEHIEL
Protocol: (§3) Test compounds or positive control substrates (oseltamivir for CES1 enzymes or procaine for CES2) were incubated with individual Supersome preparations (final CES concentration 1.5 mg/ml) in 0.1 M potassium phosphate buffer (pH 7.4) at 37° C. Substrates were added to a final concentration of 2 μM to initiate the reaction. The final incubation volume was 250 μL. Aliquots were removed after incubation for 0, 10, 30, 60 and 120 min. The reactions were stopped by the addition of IS/Q. Following protein precipitation and centrifugation, 150 μL of supernatant was diluted with an equal volume of water prior to LC-MS analysis. For procaine 150 μL of supernatant was dried down and reconstituted with 250 μL water. All samples were analyzed by LC-MS and the PAR values were used for quantification.

[8] = male, Sprague-Dawley, rat, in vivo, po, 6 mg/kg
[9] = tested on: SARS-CoV-2; set-up: species or system ferrets; settings: in vivo, po
[10] = in vitro; format: cell-based; settings: human
Protocol: The cytotoxicity of compounds was determined in A549-hACE2 cells in the following manner. Compounds (200 nL) were spotted onto 384-well Grenier plates prior to seeding 5000 A549-hACE2 cells/well in a volume of 40 μL culture medium. The plates were incubated at 37° C. for 48 hours with 5% CO2. On day 2, 40 μL of CellTiter-Glo (Promega) was added and mixed 5 times.

[11] = target: T2, CES2 (Homo sapiens, UniProt O00748); assay: CES1/2 stability, CES2; format: in vitro ADME; settings: CES2 Supersome preparation; Supersome preparations, CES 1.5 mg/ml, 2 μM substrate, pH 7.4, 37° C.; read-out: CES2 T1/2
T2 construct: purchased
T2 sequence (O00748 27-559): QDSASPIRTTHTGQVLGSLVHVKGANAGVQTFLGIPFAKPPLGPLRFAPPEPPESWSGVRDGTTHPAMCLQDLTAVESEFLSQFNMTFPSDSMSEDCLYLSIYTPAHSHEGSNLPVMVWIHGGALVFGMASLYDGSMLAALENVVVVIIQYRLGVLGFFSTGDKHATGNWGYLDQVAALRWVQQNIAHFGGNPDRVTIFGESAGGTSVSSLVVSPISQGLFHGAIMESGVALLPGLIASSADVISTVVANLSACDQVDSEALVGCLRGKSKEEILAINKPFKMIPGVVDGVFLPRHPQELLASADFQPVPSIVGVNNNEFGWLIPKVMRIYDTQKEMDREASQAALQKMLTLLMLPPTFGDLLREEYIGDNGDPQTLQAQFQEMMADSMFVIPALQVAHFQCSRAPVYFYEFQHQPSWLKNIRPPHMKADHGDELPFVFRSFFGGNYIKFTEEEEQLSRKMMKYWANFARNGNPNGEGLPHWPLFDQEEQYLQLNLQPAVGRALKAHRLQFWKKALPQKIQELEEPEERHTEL
Protocol: as §3

[12] = Plasma stability; settings: human
[13] = tested on: SARS-CoV-2 2019-nCoV/USA-WA1/2020; format: in vivo; settings: in vivo
[14] = in vitro; settings: human, PrestoBlue
[15] = in vitro; settings: hamster
[16] = in vitro; settings: African green monkey
[17] = male, Sprague-Dawley, rat, in vivo, po, 12.7 mg/kg

O=c1nc(NO)ccn1[C@@H]1O[C@H](CO)[C@@H](O)[C@H]1O [NHC, β-d-N^4-hydroxycytidine]
NHC AUCinf. ([1]; male Sprague-Dawley rats, plasma, oral NHC 10 mg/kg): 8.48 µM·h | Cmax ([1]; male Sprague-Dawley rats, plasma, oral NHC 10 mg/kg, read-out: NHC Cmax): 3.13 µM | NHC F % (based on NHC mg-eq dose) ([1]; male Sprague-Dawley rats, oral NHC 10 mg/kg): 37.0% | Human GI S9 T1/2 ([2]; 2 μM substrate, 1.0 mg/mL protein, pH 7.4): >700 min

CC(C)C(=O)OC[C@H]1O[C@@](C#N)(c2ccc3c(N)ncnn23)[C@H](O)[C@@H]1O [Compound 15, ((2R,3S,4R,5R)-5-(4-aminopyrrolo[2,1-f][1,2,4]triazin-7-yl)-5-cyano-3,4-dihydroxytetrahydrofuran-2-yl)methyl isobutyrate]
half-life at 2 μM [3]: 1.2 min | EC50 [4]: 0.588 µM | EC50 ([5]; Severe acute respiratory syndrome coronavirus 2, 48 h, read-out: SARS-CoV2 EC50): 1.03 µM | EC50 [6]: 0.407 µM | half-life at 2 μM [7]: 6 min | Cmax [8]: 2.1 µM | Change from vehicle, nasal lavage AUC(0-96) PFU/mL ([9]; 5 mg/kg): −2.21 log10 | Change from vehicle, nasal lavage AUC(0-96) RNA copies/μL ([9]; 5 mg/kg): −1.33 log10 | Change from vehicle, nasal turbinate terminal PFU/mL ([9]; 5 mg/kg): −1.68 log10 | Change from vehicle, nasal turbinate terminal RNA copies/μL ([9]; 5 mg/kg): −2.14 log10 | Change from vehicle, nasal lavage AUC(0-96) PFU/mL ([9]; 10 mg/kg): −2.50 log10 | Change from vehicle, nasal lavage AUC(0-96) RNA copies/μL ([9]; 10 mg/kg): −1.51 log10 | Change from vehicle, nasal turbinate terminal PFU/mL ([9]; 10 mg/kg): −2.20 log10 | Change from vehicle, nasal turbinate terminal RNA copies/μL ([9]; 10 mg/kg): −1.79 log10 | Change from vehicle, nasal lavage AUC(0-96) PFU/mL ([9]; 40 mg/kg): −2.80 log10 | Change from vehicle, nasal lavage AUC(0-96) RNA copies/μL ([9]; 40 mg/kg): −1.91 log10 | Change from vehicle, nasal turbinate terminal PFU/mL ([9]; 40 mg/kg): −3.79 log10 | Change from vehicle, nasal turbinate terminal RNA copies/μL ([9]; 40 mg/kg): −4.01 log10 | CC50 at 48 h [10]: > 50 µM | half-life at 2 μM [11]: < 1 min | half-life at 2 μM [2]: 69 min | half-life at 2 μM [12]: 29 min

CC(C)C(=O)OC[C@H]1O[C@@H](n2ccc(NO)nc2=O)[C@H](O)[C@@H]1O [Molnupiravir, reference compound]
half-life at 2 μM [7]: 30 to 51 min | Clinical signs versus vehicle animals [13]: No significant differences in clinical signs | Shed virus load (nasal lavages) versus vehicle [13]: lower in all treated animals than in the vehicle group | Viral RNA copies in nasal lavages and turbinates versus vehicle [13]: statistically significant mean reduction | Virus burden in the turbinates [13]: reduced burden in the turbinates | Cmax [1, 17]: 4.09 µM | NHC AUCinf. [1, 17]: 8.96 µM·h | NHC F % (based on NHC mg-eq dose) [1, 17]: 39.1% | NHC F % (based on molnupiravir dose) [1, 17]: 30.8% | Change from vehicle, nasal lavage AUC(0-96) PFU/mL ([9]; 5 mg/kg): −2.34 log10 | Change from vehicle, nasal lavage AUC(0-96) RNA copies/μL ([9]; 5 mg/kg): −0.87 log10 | Change from vehicle, nasal turbinate terminal PFU/mL ([9]; 5 mg/kg): −3.79 log10 | Change from vehicle, nasal turbinate terminal RNA copies/μL ([9]; 5 mg/kg): −2.68 log10 | half-life at 2 μM [11]: 9.8 min | half-life at 2 μM [2]: > 700 min | half-life at 2 μM [12]: 51 min

CCC(CC)COC(=O)[C@H](C)N[P@](=O)(OC[C@H]1O[C@@](C#N)(c2ccc3c(N)ncnn23)[C@H](O)[C@@H]1O)Oc1ccccc1 [Remdesivir]
EC50 ([5]; Severe acute respiratory syndrome coronavirus 2, host cells A549-ACE2, read-out: EC50, WA1/2020-nano luciferase): 0.067 µM | CC50 ([14]; CC50, DF2 HAE, primary diseased (asthma) HAE donor DF2, 72 hours): > 33 µM | CC50 ([14]; CC50, M2 HAE, primary HAE donor M2, 72 hours): 102 µM | CC50 ([14]; CC50, M6 HAE, primary HAE donor M6, 72 hours): > 100 µM | CC50 [15]: > 100 µM | CC50 ([10]; host cells A549-ACE2, read-out: CC50, A549-ACE2): > 16.7 µM | CC50 [16]: > 100 µM
